Values joined by “and” are separate entries in the source; they are usually repeats but may differ in a detail not shown here. Equal values may be shown once.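 Dose response: 5 concentrations. Exposure: 48 h. Format: 96-well plates. Endpoint: linear interpolation; highest concentration if not reached. The concentration for 50% growth inhibition is given as GI50. TGI marks complete inhibition of growth.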
Key:
Test in all cases: DTP human tumour cell line panel, 48 h
PC-3 prostate = tested on: PC-3 prostate
HT29 colon = tested on: HT29 colon
SF-295 CNS = tested on: SF-295 CNS
OVCAR-4 ovarian = tested on: OVCAR-4 ovarian
HCC-2998 colon = tested on: HCC-2998 colon
T-47D breast = tested on: T-47D breast
NCI-H522 lung = tested on: NCI-H522 lung
OVCAR-8 ovarian = tested on: OVCAR-8 ovarian
MDA-MB-435 = tested on: MDA-MB-435
EKVX NSCLC = tested on: EKVX NSCLC
MDA-MB-231 breast = tested on: MDA-MB-231 breast
IGROV1 ovarian = tested on: IGROV1 ovarian
RXF 393 renal = tested on: RXF 393 renal
SW-620 colon = tested on: SW-620 colon
SNB-75 CNS = tested on: SNB-75 CNS
ACHN renal = tested on: ACHN renal
SR leukemia = tested on: SR leukemia
HCT-116 colon = tested on: HCT-116 colon
COLO 205 colon = tested on: COLO 205 colon
HS 578T breast = tested on: HS 578T breast
NCI/ADR-RES ovarian = tested on: NCI/ADR-RES ovarian
UO-31 renal = tested on: UO-31 renal
MOLT-4 leukemia = tested on: MOLT-4 leukemia
K-562 leukemia = tested on: K-562 leukemia
M14 melanoma = tested on: M14 melanoma
NCI-H226 lung = tested on: NCI-H226 lung
UACC-257 melanoma = tested on: UACC-257 melanoma
CCRF-CEM leukemia = tested on: CCRF-CEM leukemia
UACC-62 melanoma = tested on: UACC-62 melanoma
A549 NSCLC = tested on: A549 NSCLC
DU-145 prostate = tested on: DU-145 prostate
KM12 colon = tested on: KM12 colon
SF-539 CNS = tested on: SF-539 CNS
LOX IMVI melanoma = tested on: LOX IMVI melanoma
SK-OV-3 ovarian = tested on: SK-OV-3 ovarian
SF-268 CNS = tested on: SF-268 CNS
SK-MEL-28 melanoma = tested on: SK-MEL-28 melanoma
MALME-3M melanoma = tested on: MALME-3M melanoma
786-0 renal = tested on: 786-0 renal
HOP-62 NSCLC = tested on: HOP-62 NSCLC
SN12C renal = tested on: SN12C renal
HCT-15 colon = tested on: HCT-15 colon
HOP-92 NSCLC = tested on: HOP-92 NSCLC
BT-549 breast = tested on: BT-549 breast
SK-MEL-2 melanoma = tested on: SK-MEL-2 melanoma
SNB-19 CNS = tested on: SNB-19 CNS
A498 renal = tested on: A498 renal
OVCAR-5 ovarian = tested on: OVCAR-5 ovarian
CAKI-1 renal = tested on: CAKI-1 renal
OVCAR-3 ovarian = tested on: OVCAR-3 ovarian
NCI-H23 lung = tested on: NCI-H23 lung
NCI-H460 lung = tested on: NCI-H460 lung
TK-10 renal = tested on: TK-10 renal
U251 CNS = tested on: U251 CNS
SK-MEL-5 melanoma = tested on: SK-MEL-5 melanoma
HL-60(TB) leukemia = tested on: HL-60(TB) leukemia
RPMI-8226 leukemia = tested on: RPMI-8226 leukemia
MCF7 breast = tested on: MCF7 breast

CC1=C(/C=C/C(C)=C/C=C/C(C)=C/C=N/NC(=S)NC(=S)N/N=C/C=C(C)/C=C/C=C(C)/C=C/C2=C(C)CCCC2(C)C)C(C)(C)CCC1
GI50 (PC-3 prostate): 3.52 µM and 1.75 µM | TGI (PC-3 prostate): 12.7 µM and 7.23 µM | GI50 (HT29 colon): 1.91 µM and 1.07 µM | TGI (HT29 colon): 8.83 µM and 3.69 µM | GI50 (SF-295 CNS): 4.09 µM and 2.1 µM | TGI (SF-295 CNS): 11.7 µM and 9.42 µM | GI50 (OVCAR-4 ovarian): 1.74 µM and 1.22 µM | TGI (OVCAR-4 ovarian): 7.84 µM and 5.4 µM | GI50 (HCC-2998 colon): 6.73 µM and 4.07 µM | TGI (HCC-2998 colon): 13.5 µM and 11.8 µM | GI50 (T-47D breast): 1.49 µM and 1.09 µM | TGI (T-47D breast): 8.43 µM and 4.34 µM | GI50 (NCI-H522 lung): 0.286 µM and 0.181 µM | TGI (NCI-H522 lung): 1.07 µM and 0.795 µM | GI50 (OVCAR-8 ovarian): 3.71 µM and 2.06 µM | TGI (OVCAR-8 ovarian): 12.3 µM and 7.32 µM | GI50 (MDA-MB-435): 1.17 µM and 0.84 µM | TGI (MDA-MB-435): 4.49 µM and 2.14 µM | GI50 (EKVX NSCLC): 3.97 µM and 1.66 µM | TGI (EKVX NSCLC): 11.3 µM and 7.77 µM | GI50 (MDA-MB-231 breast): 3.99 µM and 3.67 µM | TGI (MDA-MB-231 breast): 11 µM and 10.6 µM | GI50 (IGROV1 ovarian): 1.33 µM and 0.943 µM | TGI (IGROV1 ovarian): 6.15 µM and 2.87 µM | GI50 (RXF 393 renal): 0.935 µM and 0.847 µM | TGI (RXF 393 renal): 1.87 µM and 1.58 µM | GI50 (SW-620 colon): 1.44 µM and 0.86 µM | TGI (SW-620 colon): 5.42 µM and 1.74 µM | GI50 (SNB-75 CNS): 2.06 µM and 1.16 µM | TGI (SNB-75 CNS): 6.75 µM and 3.28 µM | GI50 (ACHN renal): 5.14 µM and 2.3 µM | TGI (ACHN renal): 11.4 µM and 7.9 µM | GI50 (SR leukemia): 1.43 µM and 0.938 µM | TGI (SR leukemia): 8.12 µM and 3.79 µM | GI50 (HCT-116 colon): 1.91 µM and 0.916 µM | TGI (HCT-116 colon): 8.4 µM and 2.23 µM | GI50 (COLO 205 colon): 1.46 µM and 0.903 µM | TGI (COLO 205 colon): 5.14 µM and 1.71 µM | GI50 (HS 578T breast): 3.25 µM and 1.91 µM | TGI (HS 578T breast): 18.7 µM and 9.97 µM | GI50 (NCI/ADR-RES ovarian): 1.76 µM and 1.56 µM | TGI (NCI/ADR-RES ovarian): 6.61 µM and 5.46 µM | GI50 (UO-31 renal): 1.84 µM and 1.52 µM | TGI (UO-31 renal): 8.94 µM and 7.32 µM | GI50 (MOLT-4 leukemia): 1.16 µM and 0.667 µM | TGI (MOLT-4 leukemia): 6.09 µM and 2.45 µM | GI50 (K-562 leukemia): 1.96 µM and 1.29 µM | TGI (K-562 leukemia): 8.62 µM and 6.63 µM | GI50 (M14 melanoma): 1.24 µM and 0.918 µM | TGI (M14 melanoma): 3.73 µM and 1.74 µM | GI50 (NCI-H226 lung): 1.06 µM and 1.05 µM | TGI (NCI-H226 lung): 2.68 µM and 2.47 µM | GI50 (UACC-257 melanoma): 5.49 µM and 3.64 µM | TGI (UACC-257 melanoma): 12 µM and 9.82 µM | GI50 (CCRF-CEM leukemia): 1.71 µM and 0.686 µM | TGI (CCRF-CEM leukemia): 25.8 µM and 4.45 µM | GI50 (UACC-62 melanoma): 1.48 µM and 0.89 µM | TGI (UACC-62 melanoma): 6.09 µM and 2.43 µM | GI50 (A549 NSCLC): 5.4 µM and 3.79 µM | TGI (A549 NSCLC): 12.7 µM and 10.8 µM | GI50 (DU-145 prostate): 5.79 µM and 2.55 µM | TGI (DU-145 prostate): 12.5 µM and 8.77 µM | GI50 (KM12 colon): 2.74 µM and 1.32 µM | TGI (KM12 colon): 9.21 µM and 3.97 µM | GI50 (SF-539 CNS): 1.13 µM and 0.994 µM | TGI (SF-539 CNS): 2.85 µM and 2.03 µM | GI50 (LOX IMVI melanoma): 1.8 µM and 1.11 µM | TGI (LOX IMVI melanoma): 6.53 µM and 3.02 µM | GI50 (SK-OV-3 ovarian): 6.79 µM and 5.51 µM | TGI (SK-OV-3 ovarian): 14 µM and 12.3 µM | GI50 (SF-268 CNS): 5.38 µM and 2.47 µM | TGI (SF-268 CNS): 11.9 µM and 9.11 µM | GI50 (SK-MEL-28 melanoma): 3.23 µM and 1.85 µM | TGI (SK-MEL-28 melanoma): 9.12 µM and 6.78 µM | GI50 (MALME-3M melanoma): 1.19 µM and 0.882 µM | TGI (MALME-3M melanoma): 5.91 µM and 2.63 µM | GI50 (786-0 renal): 1.75 µM and 0.944 µM | TGI (786-0 renal): 5.09 µM and 1.85 µM | GI50 (HOP-62 NSCLC): 3.84 µM and 2.42 µM | TGI (HOP-62 NSCLC): 11.3 µM and 5 µM | GI50 (SN12C renal): 1.56 µM and 1.07 µM | TGI (SN12C renal): 6.34 µM and 3.32 µM | GI50 (HCT-15 colon): 2.68 µM and 1.89 µM | TGI (HCT-15 colon): 9.82 µM and 8.2 µM | GI50 (HOP-92 NSCLC): 5.82 µM and 2.33 µM | TGI (HOP-92 NSCLC): 13.4 µM and 6.76 µM | GI50 (BT-549 breast): 4.85 µM and 1.69 µM | TGI (BT-549 breast): 11.5 µM and 4.77 µM | GI50 (SK-MEL-2 melanoma): 5.79 µM and 1.82 µM | TGI (SK-MEL-2 melanoma): 12.5 µM and 6.97 µM | GI50 (SNB-19 CNS): 5.25 µM and 4.15 µM | TGI (SNB-19 CNS): 11.6 µM and 12 µM | GI50 (A498 renal): 6.57 µM and 1.36 µM | TGI (A498 renal): 13 µM and 5.83 µM | GI50 (OVCAR-5 ovarian): 3.49 µM and 2.84 µM | TGI (OVCAR-5 ovarian): 9.72 µM and 8.04 µM | GI50 (CAKI-1 renal): 1.6 µM and 0.853 µM | TGI (CAKI-1 renal): 7.12 µM and 2.9 µM | GI50 (OVCAR-3 ovarian): 1.47 µM and 0.802 µM | TGI (OVCAR-3 ovarian): 4.92 µM and 1.53 µM | GI50 (NCI-H23 lung): 1.76 µM and 1.17 µM | TGI (NCI-H23 lung): 7.28 µM and 4.37 µM | GI50 (NCI-H460 lung): 2.35 µM and 1.66 µM | TGI (NCI-H460 lung): 8.68 µM and 6.36 µM | GI50 (TK-10 renal): 8.6 µM and 2.2 µM | TGI (TK-10 renal): 16.1 µM and 7.54 µM | GI50 (U251 CNS): 2.17 µM and 1.58 µM | TGI (U251 CNS): 7.18 µM and 4.62 µM | GI50 (SK-MEL-5 melanoma): 1.55 µM and 1.56 µM | TGI (SK-MEL-5 melanoma): 5.03 µM and 6.03 µM | GI50 (HL-60(TB) leukemia): 1.77 µM and 1 µM | TGI (HL-60(TB) leukemia): 9.22 µM and 4.3 µM | GI50 (RPMI-8226 leukemia): 3.31 µM and 1.29 µM | TGI (RPMI-8226 leukemia): 23.1 µM and 4.55 µM | GI50 (MCF7 breast): 2.38 µM and 1.83 µM | TGI (MCF7 breast): 12.5 µM and 7.5 µM

Reference: PubChem BioAssay (NCI)
